Assay: method code SF-AS, from PMID: 7312925

| logP | SMILES |
| --- | --- |
| 0.24 | Cc1cc(O)c(N(C)C)nn1 |
| -0.82 | Cc1cc(O)c(Cl)nn1 |
| -0.32 | Cc1cc(C)c(N)nn1 |
| 0.61 | Cc1cc(C)c(NN(C=O)Cc2ccccc2)nn1 |
| -0.06 | Cc1cc(O)c(N2CCOCC2)nn1 |
| -0.85 | Cc1cc(O)c(N)nn1 |
| -0.89 | CC(=O)Nc1nnc(C)cc1O |
| -0.3 | Cc1cc(O)c(O)nn1 |
| 0.02 | CCOc1cc(=O)c2nncn2[nH]1 |
| -0.52 | Cc1[nH]n2cnnc2c(=O)c1N |
| -1.1 | Cc1[nH]n2cnnc2c(=O)c1N=O |
| 0.93 | Cc1cc(C)c(N/N=C\c2ccccc2)nn1 |
| -0.21 | Cc1cc(=O)c2nncn2[nH]1 |
| 0.13 | Cc1cc(S)c(N)nn1 |
| -0.68 | Cc1[nH]n2cnnc2c(=O)c1Br |
| -1.22 | Cc1cc(OCC(=O)O)c(Cl)nn1 |

Source: the SangsterLogP compilation
